We go through eight compounds from patent US11584762B1, “Near-infrared fluorescent indicators for lysosome and application thereof” (DALIAN UNIVERSITY OF TECHNOLOGY, priority 2022, dated 2023).

For data set [1], the system named is lysosomes of RAW 264.7 cells. Put plainly: Confocal imaging of live cell lysosomes co-stained with DND-26. It is filed as cell-based. The note with it: co-stain 1 μM DND-26, PBS washed. The protocol: The fluorescent imaging of compounds D1, D6, D22 and D25. After incubating for 24 hours in a cell incubator with 5% CO2 at 37° C., RAW 264.7 cells were incubated with 1 μM D1 or 1 μM D6 for 5 min, or incubated with 1 μM D22 or 1 μM D25 for 60 min, then incubated with 1 μM DND-26 which is green lysosome probe for 5 min, washed three times with PBS, then imaged using a confocal microscope.
The fluorescence image of compounds D15, D20, D46 and D51. After incubating for 24 hours in a cell incubator with 5% CO2 at 37° C., RAW 264.7 cells were incubated with 1 μM D15 or 1 μM D20 for 5 min, or incubated with 1 μM D46 or 1 μM D51 for 60 min, then incubated with 1 μM DND-26 for 5 min, washed three times with PBS, and then imaged using a confocal microscope.

Data set [2] is described as follows: Emission in 2 mM CTAB (pH 3) or H2O (pH 7). The class given is physicochemical. The note with it: for Fluorescence emission in 2 mM CTAB at pH 3 / Fluorescence emission in water at pH 7: Table 2; for Emission in 2 mM CTAB at pH 3 / Fluorescence in water at pH 7: FIG. 1, 1 μM; for Emission in 2 mM CTAB at pH 3: pH 3, lysosome-like microenvironment; for Fluorescence in water at pH 7: H2O. The protocol:
The properties of compounds D1, D2, D25 and D26 were investigated. Compounds D1, D2, D25 and D26 were dissolved in DMSO to obtain a 1 mM stock solution. The stock solution was further diluted with 2 mM CTAB (pH 3) or H2O (pH 7) to obtain a 1 μM testing solution. The absorption spectrum and emission spectrum of the testing solution were measured. The evaluated method of photophysical properties was the same as example 13.
CTAB (Hexadecyl trimethyl ammonium bromide) is a cationic surfactant with a critical micelle concentration of 0.9 mM. CTBA exists in the form of micelles in a 2 mM solution of CTAB, which not only helps dissolve dye molecules but also simulates the acidic microenvironment of lysosomes. […] It is preliminarily determined that such property is in favor of confocal imaging of lysosomes without PBS washing.
(§1) The photophysical properties of compounds D6, D15, D20, D22, D46 and D51 are provided in Table 2, following a similar testing method as example 14 and example 15. […] It can be seen that such property is in favor of confocal imaging of lysosomes without PBS washing.

A short description of data set [3]: Photophysical properties in acetonitrile (absorption, emission, extinction coefficient, quantum yield). It is filed as physicochemical. The protocol: The photophysical properties of compounds D1, D2, D25 and D26 were investigated. Compounds D1, D2, D25 and D26 were dissolved in DMSO to obtain a 1 mM stock solution. The stock solution was further diluted with acetonitrile to obtain a 1 μM testing solution, of which 1 μL trifluoroacetic acid (0.1% by volume) was added. The absorption spectrum, emission spectrum, quantum yield and molar extinction coefficient of these testing solutions were measured. The absorption spectrum was recorded on Agilent 8453 UV-Vis-Spectrophotometer, and the fluorescent spectrum was recorded on an Agilent fluorescence spectrometer. The maximum absorption spectrum (λab), the maximum emission spectrum (λem), the molar extinction coefficient (ε), and the fluorescence quantum yield (Φ^1) of compounds D1, D2, D25 and D26 were shown in Table 1.
as §1

Data set [4] deals with lysosomes of RAW 264.7 cells. In words: Confocal imaging of lysosomes after chloroquine stimulation. The note with it: 1 μM, co-staining D25 and DND-26, 20 µM chloroquine, within 5 min. It is filed as cell-based. The protocol: The fluorescence imaging of compound D25. After incubating for 24 hours in a cell incubator with 5% CO2 at 37° C., RAW 264.7 cells were incubated with 1 μM D25 for 60 min, then incubated with 1 μM DND-26 for 5 min, washed three times with PBS, and then imaged using a confocal microscope after adding 20 µM chloroquine. Chloroquine can cause protons to escape from lysosomes, so it can be used to raise the pH of the lysosomes.

Data set [5] deals with lysosomes of RAW 264.7 cells. Put plainly: Confocal imaging of live cell lysosomes without washing. The class given is cell-based. The note with it: 100 nM for 60 min, no washing. The protocol:
The fluorescence image of compound D25. After incubating for 24 hours in a cell incubator with 5% CO2 at 37° C., RAW 264.7 cells were incubated with 100 nM D25 for 60 min and then imaged using a confocal microscope.

Data set [6] in a line: Confocal imaging of stained vesicles at pH 4.0 and pH 7.4. The note with it: 60 min. The protocol:
We further investigate the targeting feature by imaging vesicles stained with D25 at pH 4.0 and pH 7.4.
The “droplet transfer” method was used to prepare vesicles composed of PC/Chol molar ratios of 7:3, following six steps as below: 1) Prepare 200 mM glucose aqueous solution and sucrose aqueous solution respectively. 2) Hydrophobic phase (0.3 mM PC in decane+0.3 mM CL in decane for PC/CL). 3) The hydrophobic phase was prepared by adding PC (0.3 mM) and possibly other lipids (SM and/or Chol) in decane. 4) Pipette the aqueous phase consisting of 20 μL of sucrose solution and the hydrophobic phase consisting of 600 μL PC/CL into a 1.5 ml centrifuge tube and shake them well. 5) Centrifuge the tube, then remove the mineral oil and wash the GUVs to remove excess solutes. 6) Suspend 30 μL of the pellet in 20 μL of 200 mM glucose solution. 7) Pipette 20 μL onto a glass slide and observe with a confocal microscope and fluorescence lifetime microscope.
Method for vesicles imaging, 30 μL of the vesicles was diluted with 20 μL of 200 mM glucose solution, then stained with D25 in pH 4 PBS (or in pH 7.4 PBS) for 60 min and imaged with a confocal microscope.

In data set [7] the test system is lysosomal membrane of RAW 264.7 cells. Put plainly: STED-based super-resolution imaging. The class given is cell-based. The note with it: 250 nM for 60 min. The protocol: We used D25 as a representative to evaluate its ability to perform STED-based super-resolution imaging. After incubating for 24 hours in a cell incubator with 5% CO2 at 37° C., RAW 264.7 cells were stained with 250 nM D25 for 60 min and imaged using STED based microscope after replacing the staining solution with fresh MEM.

Where [8] appears, read: Table 1, acetonitrile, 1 μM, trifluoroacetic acid 0.1% by volume.

Take `COc1ccc(C2=C3C(C)=C(Cl)C(C=Cc4ccc5c(c4)c4ccccc4n5Cc4cn(CCN5CCNCC5)nn4)=[N+]3[B-](F)(F)n3c(C=Cc4ccc5c(c4)c4ccccc4n5Cc4cn(CCN5CCNCC5)nn4)c(Cl)c(C)c32)cc1` [D51]: the “Lysosome targeting in confocal images” value in data set [1] (1 μM for 60 min) is listed as “can specifically target lysosomes”. Moreover, in data set [2], the “Fluorescence emission in 2 mM CTAB at pH 3” value is listed as “Stable” and the “Fluorescence emission in water at pH 7” value was “No”. In data set [3] (Table 2, in acetonitrile), the “Φ^1 (fluorescence quantum yield)” value was 0.79, the “ε (molar extinction coefficient)” value came out at 11.1 M^−1 · cm^−1 × 10^4, the “λab (maximum absorption)” value is recorded as 689 nm and the “λem (maximum emission)” value came out at 728 nm.
For `CC1=C(Cl)C(C)=[N+]2C1=C(c1ccccc1)c1c(C)c(Cl)c(C=Cc3ccc4c(c3)c3ccccc3n4Cc3cn(CCN(C)CCN(C)C)nn3)n1[B-]2(F)F` [D2], in data set [2], the “Emission in 2 mM CTAB at pH 3” value is reported as “stable emission” and the “Fluorescence in water at pH 7” value is “almost no fluorescence”. In data set [3] (Table 1, acetonitrile), the “Φ^1 (fluorescence quantum yield)” value amounted to 0.63 and the “ε (molar extinction coefficient)” value is 10.4 M^−1 · cm^−1 × 10^4. In data set [3] (setting [8]), the “λab (maximum absorption)” value is 604 nm and the “λem (maximum emission)” value is reported as 650 nm.
On to `CCOC(=O)CCC1=C2C(C)=CC(C)=[N+]2[B-](F)(F)n2c(C=Cc3ccc4c(c3)c3ccccc3n4Cc3cn(CCCN(C)CCN(C)C)nn3)cc(C)c21` [D22], for which the “Lysosome targeting in confocal images” value in data set [1] (1 μM for 60 min) is on record as “can specifically target lysosomes”. Besides, in data set [2], the “Fluorescence emission in 2 mM CTAB at pH 3” value is “Stable” and the “Fluorescence emission in water at pH 7” value was “No”. In addition, in data set [3] (Table 2, in acetonitrile), the “Φ^1 (fluorescence quantum yield)” value is recorded as 0.81, the “ε (molar extinction coefficient)” value was 10.8 M^−1 · cm^−1 × 10^4, the “λab (maximum absorption)” value is on record as 611 nm and the “λem (maximum emission)” value was determined as 661 nm.
Turning to `CC1=C(Cl)C(C=Cc2ccc3c(c2)c2ccccc2n3Cc2cn(CCN(C)CCN(C)C)nn2)=[N+]2C1=C(c1ccccc1)c1c(C)c(Cl)c(C=Cc3ccc4c(c3)c3ccccc3n4Cc3cn(CCN(C)CCN(C)C)nn3)n1[B-]2(F)F` [D26], in data set [2], the “Emission in 2 mM CTAB at pH 3” value is given as “stable emission” and the “Fluorescence in water at pH 7” value is “almost no fluorescence”. Moreover, in data set [3] (Table 1, acetonitrile), the “Φ^1 (fluorescence quantum yield)” value came to 0.72 and the “ε (molar extinction coefficient)” value is 11.3 M^−1 · cm^−1 × 10^4. Moreover, in data set [3] (setting [8]), the “λab (maximum absorption)” value was found to be 692 nm and the “λem (maximum emission)” value is listed as 732 nm.
Take `CCOC(=O)CCC1=C2C(C)=CC(/C=C/c3ccc4c(c3)c3ccccc3n4Cc3cn(CCCN(C)CCN(C)C)nn3)=[N+]2[B-](F)(F)n2c(/C=C/c3ccc4c(c3)c3ccccc3n4Cc3cn(CCCN(C)CCN(C)C)nn3)cc(C)c21` [D46]: in data set [1] (1 μM for 60 min), the “Lysosome targeting in confocal images” value was “can specifically target lysosomes”. In addition, in data set [2], the “Fluorescence emission in 2 mM CTAB at pH 3” value is on record as “Stable” and the “Fluorescence emission in water at pH 7” value is reported as “No”. In data set [3] (Table 2, in acetonitrile), the “Φ^1 (fluorescence quantum yield)” value worked out at 0.89, the “ε (molar extinction coefficient)” value came out at 11.0 M^−1 · cm^−1 × 10^4, the “λab (maximum absorption)” value is given as 659 nm and the “λem (maximum emission)” value is listed as 675 nm.
For the compound `CC1=C(Cl)C(C)=[N+]2C1=C(c1ccc(C)cc1)c1c(C)c(Cl)c(C=Cc3ccc4c(c3)c3ccccc3n4Cc3cn(CCN4CCNCC4)nn3)n1[B-]2(F)F` [D6], the “Lysosome targeting in confocal images” value in data set [1] (1 μM for 5 min) was “can specifically target lysosomes”. Also, in data set [2], the “Fluorescence emission in 2 mM CTAB at pH 3” value is listed as “Stable” and the “Fluorescence emission in water at pH 7” value is listed as “No”. Besides, in data set [3] (Table 2, in acetonitrile), the “Φ^1 (fluorescence quantum yield)” value turned out to be 0.73, the “ε (molar extinction coefficient)” value turned out to be 8.1 M^−1 · cm^−1 × 10^4, the “λab (maximum absorption)” value is listed as 590 nm and the “λem (maximum emission)” value was 615 nm.
For the compound `CC1=CC(C=Cc2ccc3c(c2)c2ccccc2n3Cc2cn(CCN(C)CCN(C)C)nn2)=[N+]2C1=C(c1ccccc1)c1c(C)cc(C=Cc3ccc4c(c3)c3ccccc3n4Cc3cn(CCN(C)CCN(C)C)nn3)n1[B-]2(F)F` [D25], the “Lysosome targeting in confocal images” value in data set [1] (1 μM for 60 min) was “can specifically target lysosomes”. For the same compound, in data set [2], the “Emission in 2 mM CTAB at pH 3” value is reported as “stable emission” and the “Fluorescence in water at pH 7” value is reported as “almost no fluorescence”. Besides, in data set [4], the “Change of fluorescence intensity after adding chloroquine” value is on record as “only changed slightly”. Moreover, the “Lysosome imaging without washing” value in data set [5] is “can be used for lysosome images without washing”. Further, in data set [6] (pH 4 PBS), the “Fluorescence of stained vesicles at pH 4” value is recorded as “intense fluorescence”. Further, in data set [6] (pH 7.4 PBS), the “Fluorescence of stained vesicles at pH 7.4” value is on record as “weak fluorescence”. Besides, in data set [3] (Table 1, acetonitrile), the “Φ^1 (fluorescence quantum yield)” value worked out at 0.94 and the “ε (molar extinction coefficient)” value was 9.2 M^−1 · cm^−1 × 10^4. In addition, in data set [3] (setting [8]), the “λab (maximum absorption)” value is 664 nm and the “λem (maximum emission)” value came to 684 nm. The “Localization in super-resolution image” value in data set [7] is “localized in the lysosomal membrane”.
As for `CC1=CC(C)=[N+]2C1=C(c1ccccc1)c1c(C)cc(C=Cc3ccc4c(c3)c3ccccc3n4Cc3cn(CCN(C)CCN(C)C)nn3)n1[B-]2(F)F` [D1], the “Lysosome targeting in confocal images” value in data set [1] (1 μM for 5 min) was “can specifically target lysosomes”. Besides, in data set [2], the “Emission in 2 mM CTAB at pH 3” value is on record as “stable emission” and the “Fluorescence in water at pH 7” value is “almost no fluorescence”. In addition, in data set [3] (Table 1, acetonitrile), the “Φ^1 (fluorescence quantum yield)” value turned out to be 0.83 and the “ε (molar extinction coefficient)” value worked out at 7.5 M^−1 · cm^−1 × 10^4. For the same compound, in data set [3] (setting [8]), the “λab (maximum absorption)” value stood at 581 nm and the “λem (maximum emission)” value came out at 603 nm.
